Test results as given in patent EP0088849A1, “Levorotatory compounds of N-substituted benzenesulphone amides, process for their preparation and pharmaceutical compositions containing them” (CHOAY S.A., priority 1982, dated 1983).

Tested on: chiens Beagle
Experiment: Anti-emetic test: apomorphine-induced vomiting in Beagle dogs
Type: in vivo
Conditions: for Diminution par rapport au témoin (%): percentage decrease in number of vomitings vs control trial, compound about 1 mg/kg intramuscular at time 0, apomorphine about 100 µg/kg subcutaneous 30 minutes later
Experimental: L'étude a été effectuée sur des chiens Beagle provenant de l'élevage du Centre de RecherchesBiologiques de Baugy.
On a tout d'abord effectué un essai témoin, puis six jours après, on a testé notamment les quatre composés mentionnés ci-dessus.
Pendant l'essai témoin, les animaux reçoivent 100 µg/kg d'apomorphine, qui provoque des vomissements,
Lorsqu'on teste les produits conformes à l'invention et le racémique du composé n° 1 135, les animaux reçoivent : • - à l'instant 0, une injection intra-musculaire du composé étudié à raison d'environ 1 mg/kg • - 30 minutes plus tard, une injection sous- cutanée d'apomorphine est effectuée, d'environ 100 µg/kg.
Les résultats donnés ci-après correspondent aux pourcentages de diminution du nombre de vomissements par rapport à l'essai témoin.

Row | SMILES | Diminution par rapport au témoin (%) | nombre de vomissements / activité (result in words, same test (about 1 mg/kg i.m., apomorphine about 100 µg/kg s.c. 30 min later))
1 | CCN1CCCCCC1CNS(=O)(=O)c1cc(Cl)c(N)cc1OC (racemic) [Composé n° 1 149, amino-4 chloro-5 méthoxy-2 N-(N-éthyl méthyl-2 azépinyl) benzènesulfonamide] | 60 | 
2 | CCN1CCCC1CNS(=O)(=O)c1cc(Cl)c(N)cc1OC (racemic) [racémique du lévo-gyre n° 1 135, reference compound] | 10 | 
3 | CCN1CCC[C@H]1CNS(=O)(=O)c1cc(Cl)c(N)cc1OC [Composé n° 1 135] | 50 | beaucoup plus actif que le racémique correspondant
4 | CCN1CCC[C@H]1CNS(=O)(=O)c1cc(Cl)c(OC)cc1OC [Composé n° 1 138] | 20 | 
